Like-named read-outs stand apart in the source and are kept apart here.
Legend:
Chimeric Hxt11/2 [1] = test system: T1, Chimeric Hxt11/2; test: […] sugar uptake by yeast cells, filtration; format: cell-based, Saccharomyces cerevisiae; conditions: labelled compound, mineral medium, strain DS68625
T1 construct: single-chain fusion: Hxt11 residues 1-54 replace Hxt2 residues 1-49, rest is Hxt2; untagged, pRS313-P7T7; expressed in S. cerevisiae DS68625 (hxt1-7, gal2 deleted)

Chimeric Hxt11/2 [2] = test system: T1, Chimeric Hxt11/2; test: […] sugar uptake by yeast cells, filtration; format: cell-based, Saccharomyces cerevisiae; conditions: labelled compound; 0.5-500 mM xylose, 1 min uptake, mineral medium, strain DS68625; Hxt2 numbering; read-out: K m (mM) / Xylose

SMILES | Km (Chimeric Hxt11/2 [1]; 0.1-500 mM glucose, 15 s uptake, read-out: K m (mM) / Glucose) [mM] | Km (Chimeric Hxt11/2 [2]) [mM] | Km (Chimeric Hxt11/2 [1]; 0.5-500 mM xylose, 1 min uptake, read-out: K m (mM) / Xylose) [mM]
OC[C@H]1OC(O)[C@H](O)[C@@H](O)[C@@H]1O (stereo partly drawn) [D-glucose] | 17.4 ± 3.8 |  | 
OC1OC[C@@H](O)[C@H](O)[C@H]1O (stereo partly drawn) [D-xylose] |  | 57.3 ± 5.2 | 69 ± 9.1

From PMC5575463, “The amino‐terminal tail of Hxt11 confers membrane stability to the Hxt2 sugar transporter and improves xylose fermentation in the presence of acetic acid” (Biotechnology and Bioengineering, 2017)
